Test results published in patent US12115178B2, “Acylated active agents and methods of their use for the treatment of autoimmune disorders” (Flagship Pioneering Innovations V, Inc., priority 2018, dated 2024).

Experiment: Assay 1. Stability in Simulated Gastric Fluid (SGF)
Type: in vitro ADME
Conditions: SGF pH 1.6 with pepsin, 1 μM, 37° C.
Method: Assay 1. Stability of acylated active agents in Simulated Gastric Fluid (SGF). This assay was used to assess the stability of an acylated active agent in a stomach.
Medium was prepared by dissolving 2 g of sodium chloride in 0.6 L in ultrapure water (MilliQ®, Millipore Sigma, Darmstadt, Germany). The pH was adjusted to 1.6 with 1N hydrochloric acid, and the volume was then adjusted to 1 L with purified water.
60 mg FaSSIF powder (Biorelevant™, London, UK) were dissolved in 500 mL buffer (above). Pepsin was added (0.1 mg/mL) (Millipore Sigma, Darmstadt, Germany), and the solution was stirred. The resulting SGF media were used fresh for each experiment.
Test compounds were dissolved in DMSO stock to 1 mM. An aliquot of the DMSO stock solution was removed and diluted in the SGF Media in 15 mL falcon tubes to generate a total compound concentration of 1 μM. A 1 mL aliquot was immediately removed and diluted once with 1 volume of acetonitrile for T0 timepoint. The mixture was sealed and mixed at 37° C. in an incubator. Aliquots (1 mL) were removed at regular intervals and immediately quenched by the addition of 1 volume of acetonitrile. The resulting samples were analyzed by LC/MS to determine degradation rates in SGF.

Compound	Assay 1 (SGF) (% Remaining @ 1 hour)
CCC(=O)OC[C@H]1O[C@@H](OC(=O)/C=C/c2c[nH]c3ccccc23)[C@H](OC(=O)CC)[C@@H](OC(=O)CC)[C@@H]1OC(=O)CC [Compound 95, (2S,3R,4S,5R,6R)-3,4,5-tris(propanoyloxy)-6-[(propanoyloxy)methyl]oxan-2-yl (2E)-3-(1H-indol-3-yl)prop-2-enoate]	B (25-75% of the tested compound remaining)
CCC(=O)Oc1cc(OC(=O)CC)c2c(c1)O[C@H](c1cc(OC(=O)CC)c(OC(=O)CC)c(OC(=O)CC)c1)[C@H](OC(=O)c1cc(OC(=O)CC)c(OC(=O)CC)c(OC(=O)CC)c1)C2 [Compound 195, [(2R,3R)-5,7-di(propanoyloxy)-2-[3,4,5-tri(propanoyloxy)phenyl]chroman-3-yl] 3,4,5-tri(propanoyloxy)benzoate]	C (>75% of the tested compound remaining)
CCC(=O)O[C@@H]1OC[C@H](OC(=O)CC)[C@H](OC(=O)CC)[C@H]1OC(=O)CC [Compound 128, (2S,3R,4S,5S)-3,4,5-tris(propanoyloxy)oxan-2-yl propanoate]	C (>75% of the tested compound remaining)
CCC(=O)O[C@@H]1[C@@H](OC(=O)CC)[C@H](OC(=O)CCc2c[nH]c3ccccc23)OC[C@H]1OC(=O)CC [Compound 132, (2S,3R,4S,5R)-3,4,5-tris(propanoyloxy)oxan-2-yl 3-(1H-indol-3-yl)propanoate]	C (>75% of the tested compound remaining)
CCC(=O)Oc1cc(OC(=O)CC)c2c(=O)c(OC(=O)CC)c(-c3ccc(OC(=O)CC)c(OC(=O)CC)c3)oc2c1 [Compound 174, [4-[4-oxo-3,5,7-tri(propanoyloxy)chromen-2-yl]-2-propanoyloxy-phenyl] propanoate]	C (>75% of the tested compound remaining)
CC(=O)Oc1cc(OC(C)=O)c2c(=O)c(OC(C)=O)c(-c3cc(OC(C)=O)c(OC(C)=O)c(OC(C)=O)c3)oc2c1 [Compound 11, [3,5-diacetoxy-4-oxo-2-(3,4,5-triacetoxyphenyl)chromen-7-yl] acetate]	C (>75% of the tested compound remaining)
CCC(=O)O[C@H]1[C@H](OC(=O)CC)[C@H](OC(=O)/C=C/c2c[nH]c3ccccc23)O[C@@H](C)[C@H]1OC(=O)CC [Compound 116, (2S,3S,4R,5R,6S)-6-methyl-3,4,5-tris(propanoyloxy)oxan-2-yl (2E)-3-(1H-indol-3-yl)prop-2-enoate]	C (>75% of the tested compound remaining)
CCC(=O)O[C@@H]1[C@@H](OC(=O)CC)[C@@H](OC(=O)CCc2c[nH]c3ccccc23)OC[C@H]1OC(=O)CC [Compound 75, (2R,3R,4S,5R)-3,4,5-tris(propanoyloxy)oxan-2-yl 3-(1H-indol-3-yl)propanoate]	C (>75% of the tested compound remaining)
CCCC(=O)OC[C@H]1O[C@@H](Oc2ccccc2C(=O)O)[C@H](OC(=O)CCC)[C@@H](OC(=O)CCC)[C@@H]1OC(=O)CCC [Compound 28, 2-(((2S,3R,4S,5R,6R)-3,4,5-tris(butyryloxy)-6-((butyryloxy)methyl)tetrahydro-2H-pyran-2-yl)oxy)benzoic acid]	C (>75% of the tested compound remaining)

Experiment: Assay 2. Stability in Simulated Intestinal Fluid (SIF)
Type: in vitro ADME
Conditions: SIF pH 6.7 with pancreatin, 1 μM, 37° C.
Method: Assay 2. Stability of acylated active agents in Simulated Intestinal Fluid (SIF). This assay was used to assess the stability of an acylated active agent in a small intestine. Phosphate buffer was prepared by dissolving 0.42 g of sodium hydroxide pellets and 3.95 g of monobasic sodium phosphate monohydrate and 6.19 g of sodium chloride in ultrapure water (MilliQ®, Millipore Sigma, Darmstadt, Germany). The pH was adjusted to 6.7 using aq. HCl and aq. NaOH, as necessary, and the solution was diluted with ultrapure water to produce 1 L of the pH 6.7 buffer. 112 mg FaSSIF powder (Biorelevant™, London, UK) was dissolved in 50 mL of the pH 6.7 buffer. 2 to 3 mL of the resulting solution were then added to 500 mg pancreatin (Millipore Sigma, Darmstadt, Germany). The resulting mixture was agitated by finger tapping the vessel containing the mixture until milky suspension formed. At this time, the remainder of the 50 mL FaSSiF/pH 6.7 buffer solution was added. The resulting suspension was flipped upside down 10 times to produce SIF, which was used fresh. Test compounds were dissolved in DMSO stock to 1 mM. An aliquot of the DMSO stock solution was removed and diluted in the SIF media in 15 mL falcon tubes to produce a mixture with a tested compound concentration of 1 μM. A 1 mL aliquot was immediately removed and diluted once with 1 volume of acetonitrile for T0 timepoint. The mixture was sealed and agitated at 37° C. in an incubator. Aliquots (1 mL) were removed at regular intervals and immediately quenched by the addition of 1 volume of acetonitrile. The resulting samples were analyzed by LC/MS to determine degradation rates.

Compound	Assay 2 (SIF) (% @ Remaining 4 hours)
CCCC(=O)O[C@H]1OC[C@@H](OC(=O)CCC)[C@H](OC(=O)CCC)[C@H]1OC(=O)CCC [Compound 159, (2R,3R,4S,5R)-3,4,5-tris(butanoyloxy)oxan-2-yl butanoate]	C (>75% of the tested compound remaining)
CC(=O)Oc1ccc2c(c1)oc(=O)c1cc(OC(C)=O)c(OC(C)=O)cc12 [Compound 203, 6-oxo-6H-benzo[c]chromene-3,8,9-triyl triacetate]	B (25-75% of the tested compound remaining)
CC(=O)Oc1ccc(-c2oc3cc(OC(C)=O)cc(OC(C)=O)c3c(=O)c2OC(C)=O)cc1 [Compound 8, [4-(3,5,7-triacetoxy-4-oxo-chromen-2-yl)phenyl] acetate]	A (<25% of the tested compound remaining)
CC(=O)Oc1ccc([C@@H]2CC(=O)c3c(OC(C)=O)cc(OC(C)=O)cc3O2)cc1 [Compound 176, (S)-2-(4-acetoxyphenyl)-4-oxochromane-5,7-diyl diacetate]	A (<25% of the tested compound remaining)
CCCC(=O)O[C@H]1O[C@@H](C)[C@H](OC(=O)CCC)[C@@H](OC(=O)CCC)[C@H]1OC(=O)CCC [Compound 119, (2R,3R,4R,5S,6S)-3,4,5-tris(butanoyloxy)-6-methyloxan-2-yl butanoate]	A (<25% of the tested compound remaining)
CCCC(=O)O[C@@H]1O[C@@H](C)[C@H](OC(=O)CCC)[C@@H](OC(=O)CCC)[C@H]1OC(=O)CCC [Compound 120, (2S,3R,4R,5S,6S)-3,4,5-tris(butanoyloxy)-6-methyloxan-2-yl butanoate]	A (<25% of the tested compound remaining)
CCCC(=O)Oc1ccc([C@@H]2CC(=O)c3c(OC(=O)CCC)cc(OC(=O)CCC)cc3O2)cc1 [Compound 175, (S)-2-(4-(butyryloxy)phenyl)-4-oxochromane-5,7-diyl dibutyrate]	A (<25% of the tested compound remaining)
CC(=O)Oc1cc(OC(C)=O)c2c(=O)c(OC(C)=O)c(-c3ccc(OC(C)=O)c(OC(C)=O)c3)oc2c1 [Compound 182, [2-acetoxy-4-(3,5,7-triacetoxy-4-oxo-chromen-2-yl)phenyl] acetate]	A (<25% of the tested compound remaining)
CCCC(=O)O[C@@H]1[C@@H](OC(=O)CCC)[C@@H](Oc2ccc(N)cc2C(=O)O)OC[C@H]1OC(=O)CCC [Compound 184, 5-amino-2-[(2R,3R,4S,5R)-3,4,5-tri(butanoyloxy)tetrahydropyran-2-yl]oxy-benzoic acid]	B (25-75% of the tested compound remaining)
CCCC(=O)OCC1(OC(=O)CCC)OC[C@@H](OC(=O)CCC)[C@H](OC(=O)CCC)[C@@H]1OC(=O)CCC (stereo partly drawn) [Compound 131, [(3S,4S,5R)-2,3,4,5-tetrakis(butanoyloxy)oxan-2-yl]methyl butanoate]	A (<25% of the tested compound remaining)
CCCC(=O)Oc1ccc(/N=N/c2ccc(OC(=O)CCC)c(C(=O)O)c2)cc1C(=O)O [Compound 17, 2-butanoyloxy-5-[(E)-(4-butanoyloxy-3-carboxy-phenyl)azo]benzoic acid]	A (<25% of the tested compound remaining)
C[C@@H]1O[C@@H](OC(=O)Cc2c[nH]c3ccccc23)[C@H](OC(=O)Cc2c[nH]c3ccccc23)[C@H](OC(=O)Cc2c[nH]c3ccccc23)[C@H]1OC(=O)Cc1c[nH]c2ccccc12 [Compound 122, (2S,3R,4R,5S,6S)-3,4,5-tris({[2-(1H-indol-3-yl)acetyl]oxy})-6-methyloxan-2-yl 2-(1H-indol-3-yl)acetate]	A (<25% of the tested compound remaining)
CCCC(=O)Nc1ccc(O[C@@H]2OC[C@@H](OC(=O)CCC)[C@H](OC(=O)CCC)[C@H]2OC(=O)CCC)c(C(=O)O)c1 [Compound 188, 5-butanamido-2-{[(2S,3R,4S,5R)-3,4,5-tris(butanoyloxy)oxan-2-yl]oxy}benzoic acid]	A (<25% of the tested compound remaining)
C[C@@H]1O[C@H](OC(=O)Cc2c[nH]c3ccccc23)[C@H](OC(=O)Cc2c[nH]c3ccccc23)[C@H](OC(=O)Cc2c[nH]c3ccccc23)[C@H]1OC(=O)Cc1c[nH]c2ccccc12 [Compound 121, (2R,3R,4R,5S,6S)-3,4,5-tris({[2-(1H-indol-3-yl)acetyl]oxy})-6-methyloxan-2-yl 2-(1H-indol-3-yl)acetate]	A (<25% of the tested compound remaining)
CCCC(=O)O[C@H]1[C@@H](Oc2ccccc2C(=O)O)OC[C@@H](OC(=O)CCC)[C@H]1OC(=O)CCC [Compound 42, 2-(((3R,4R,5R)-3,4,5-tris(butyryloxy)tetrahydro-2H-pyran-2-yl)oxy)benzoic acid]	C (>75% of the tested compound remaining)
CCCC(=O)O[C@@H]1[C@@H](OC(=O)CCC)[C@H](C)O[C@@H](O)[C@@H]1OC(=O)CCC [Compound 141, (2S,3S,4R,5R)-4,5-bis(butanoyloxy)-6-hydroxy-2-methyloxan-3-yl butanoate]	C (>75% of the tested compound remaining)
